Where no end group is shown, it is not given here. [ ]: non-standard residue; d: D form. Cit = NC(=O)NCCC[C@H](N)C(=O)O
Experiments:
Assay type in all cases: binding, human
[1] = test system: autoimmune antibodies in sera from patients suffering from rheumatoid arthritis; test: ELISA of coupled peptides with RA sera; conditions: for immunological reactivity in ELISA: RA sera; for RA sera (%) positive / RA sera: number of positive sera: n = 134 RA sera, positive = OD450 of 0.2 after deduction of blank; for RA sera: number of positive sera: sera diluted 200 times
Procedure: (§1) Detection by Means of ELISA
Via an N-oxysuccinimide surface the peptides were covalently coupled to the wells of 96-well microtitre plates (Costar amide binding plates) in an amount of 1 ? g/well. Coupling took place for 16 hours at 4EC and pH 9.0. The plates were blocked for 1 hour with 2% bovine serum albumin. The sera were diluted 200 times in a diluent (0.3% BSA, 350 mM NaCl, 10 mM Tris-HCl pH 7.6, 1% vol./vol. Triton X-100, 0.5% w./vol. Na-deoxycholate, 0.1% SDS) supplemented with 10% normal rabbit serum, and incubated for one hour at room temperature. After washing the plates (3 times with PBS containing 0.05 by vol. of Tween® 20), 100 ? l of antihuman IgG conjugated with peroxidase (Dako P214), 1000 times diluted in dilution buffer, was added to the wells. After incubation for 1 hour at room temperature, the plates were washed 3 times with PBS/Tween®, and bound antibodies were detected with tetramethyl benzidine as a substrate. After 10 minutes the reaction was stopped by adding 100 ? l of 2 M sulphuric acid per well. Readout occurred at 450 nm. Sera having an OD450 of 0.2, after deduction of the blank for the respective serum (a well without a coupled peptide), were considered to be positive. […]

[2] = test system: antibodies in control sera from patients suffering from rheumatic diseases other than RA; test: ELISA of coupled peptides with control sera; conditions: n = 154; rheumatic diseases other than RA
Procedure: as §1
(§2) Via an N-oxysuccinimide surface the peptides were covalently coupled to the wells of 96-well microtitre plates (Costar amide binding plates) in an amount of 1 ? g/well. Coupling took place for 16 hours at 4EC and pH 9.0. The plates were blocked for 1 hour with 2% bovine serum albumin. The sera were diluted 200 times in a diluent (0.3% BSA, 350 mM NaCl, 10 mM Tris-HCl pH 7.6, 1% vol./vol. Triton X-100, 0.5% w./vol. Na-deoxycholate, 0.1% SDS) supplemented with 10% normal rabbit serum, and incubated for one hour at room temperature. After washing the plates (3 times with PBS containing 0.05 by vol. of Tween® 20), 100 ? l of antihuman IgG conjugated with peroxidase (Dako P214), 1000 times diluted in dilution buffer, was added to the wells. After incubation for 1 hour at room temperature, the plates were washed 3 times with PBS/Tween®, and bound antibodies were detected with tetramethyl benzidine as a substrate. After 10 minutes the reaction was stopped by adding 100 ? l of 2 M sulphuric acid per well. Readout occurred at 450 nm. Sera having an OD450 of 0.2, after deduction of the blank for the respective serum (a well without a coupled peptide), were considered to be positive.
In total, 288 sera from patients suffering from rheumatoid diseases were used, 132 of which were from patients suffering from rheumatoid arthritis.

[3] = test system: antibodies in SSC (systemic scleroderma) sera; test: ELISA of coupled peptides with SSC sera; conditions: n = 50
Procedure: as §1, §2

[4] = test system: antibodies in PM/DM (polymyositis/dermatomyositis) sera; test: ELISA of coupled peptides with PM/DM sera; conditions: n = 50
Procedure: as §1, §2

[5] = test system: antibodies in pSS (primary Sjögren's syndrome) sera; test: ELISA of coupled peptides with pSS sera; conditions: n = 50
Procedure: as §1, §2

[6] = test system: antibodies in SLE (systemic lupus erythematosus) sera; test: ELISA of coupled peptides with SLE sera; conditions: n = 50
Procedure: as §1, §2

| Sequence | immunological reactivity in ELISA [1] | control sera (%) positive [2] | control sera: number of positive sera [2] | SSC (%) positive [3] | SSC: number of positive sera [3] | PM/DM (%) positive [4] | PM/DM: number of positive sera [4] | pSS (%) positive [5] | pSS: number of positive sera [5] | SLE: number of positive sera [6] | RA sera (%) positive [1] | RA sera: number of positive sera [1] |
| --- | --- | --- | --- | --- | --- | --- | --- | --- | --- | --- | --- | --- |
| SHQESTRGRSRGRSGRSGS (Derived from known cDNA sequences of human profilaggrin) [cf, reference compound] | did not seem to be immunologically reactive |  |  |  |  |  |  |  |  |  |  |  |
| SHQESTRGRSRGRSGXSGS (SHQESTRGRSRGRSG[Cit]SGS-NH2; N-terminus assumed; SMILES C[C@@H](O)[C@H](NC(=O)[C@H](CO)NC(=O)[C@H](CCC(=O)O)NC(=O)[C@H](CCC(N)=O)NC(=O)[C@H](Cc1c[nH]cn1)NC(=O)[C@@H](N)CO)C(=O)N[C@@H](CCCNC(=N)N)C(=O)NCC(=O)N[C@@H](CCCNC(=N)N)C(=O)N[C@@H](CO)C(=O)N[C@@H](CCCNC(=N)N)C(=O)NCC(=O)N[C@@H](CCCNC(=N)N)C(=O)N[C@@H](CO)C(=O)NCC(=O)N[C@@H](CCCNC(N)=O)C(=O)N[C@@H](CO)C(=O)NCC(=O)N[C@@H](CO)C(N)=O) [cfc5] |  | 0.6% | 1 | 2% | 1 | 2% | 1 | 4% | 2 | 0 | 48% | 64 |
| SHQESTXGRSRGXSGRSGS (SHQEST[Cit]GRSRG[Cit]SGRSGS-NH2; N-terminus assumed; SMILES C[C@@H](O)[C@H](NC(=O)[C@H](CO)NC(=O)[C@H](CCC(=O)O)NC(=O)[C@H](CCC(N)=O)NC(=O)[C@H](Cc1c[nH]cn1)NC(=O)[C@@H](N)CO)C(=O)N[C@@H](CCCNC(N)=O)C(=O)NCC(=O)N[C@@H](CCCNC(=N)N)C(=O)N[C@@H](CO)C(=O)N[C@@H](CCCNC(=N)N)C(=O)NCC(=O)N[C@@H](CCCNC(N)=O)C(=O)N[C@@H](CO)C(=O)NCC(=O)N[C@@H](CCCNC(=N)N)C(=O)N[C@@H](CO)C(=O)NCC(=O)N[C@@H](CO)C(N)=O) [cfc8] |  | 0.6% | 1 |  | 0 | 2% | 1 | 2% | 1 | 0 | 41% | 55 |
| SHQESTRGRSXGRSGRSGS (SHQESTRGRS[Cit]GRSGRSGS-NH2; N-terminus assumed; SMILES C[C@@H](O)[C@H](NC(=O)[C@H](CO)NC(=O)[C@H](CCC(=O)O)NC(=O)[C@H](CCC(N)=O)NC(=O)[C@H](Cc1c[nH]cn1)NC(=O)[C@@H](N)CO)C(=O)N[C@@H](CCCNC(=N)N)C(=O)NCC(=O)N[C@@H](CCCNC(=N)N)C(=O)N[C@@H](CO)C(=O)N[C@@H](CCCNC(N)=O)C(=O)NCC(=O)N[C@@H](CCCNC(=N)N)C(=O)N[C@@H](CO)C(=O)NCC(=O)N[C@@H](CCCNC(=N)N)C(=O)N[C@@H](CO)C(=O)NCC(=O)N[C@@H](CO)C(N)=O) [cfc3] |  | 0.6% | 2 |  | 0 | 2% | 1 | 2% | 1 | 0 | 28% | 37 |
| ESSHGWTGPSTRGRQGSRHE [nf, reference compound] | not |  |  |  |  |  |  |  |  |  |  |  |
| SHQESTXGRSXGRSGRSGS (SHQEST[Cit]GRS[Cit]GRSGRSGS-NH2; N-terminus assumed; SMILES C[C@@H](O)[C@H](NC(=O)[C@H](CO)NC(=O)[C@H](CCC(=O)O)NC(=O)[C@H](CCC(N)=O)NC(=O)[C@H](Cc1c[nH]cn1)NC(=O)[C@@H](N)CO)C(=O)N[C@@H](CCCNC(N)=O)C(=O)NCC(=O)N[C@@H](CCCNC(=N)N)C(=O)N[C@@H](CO)C(=O)N[C@@H](CCCNC(N)=O)C(=O)NCC(=O)N[C@@H](CCCNC(=N)N)C(=O)N[C@@H](CO)C(=O)NCC(=O)N[C@@H](CCCNC(=N)N)C(=O)N[C@@H](CO)C(=O)NCC(=O)N[C@@H](CO)C(N)=O) [cfc7] |  | 0.6% | 1 |  | 0 | 2% | 1 | 2% | 1 | 0 | 45% | 60 |
| SHQESTEGRSRGRSGRSGS [cfE, reference compound] | did not seem to be immunologically reactive |  |  |  |  |  |  |  |  |  |  |  |
| SHQESTQGRSRGRSGRSGS [cfQ, reference compound] | did not seem to be immunologically reactive |  |  |  |  |  |  |  |  |  |  |  |
| SHQESTXGXSRGRSGRSGS (SHQEST[Cit]G[Cit]SRGRSGRSGS-NH2; N-terminus assumed; SMILES C[C@@H](O)[C@H](NC(=O)[C@H](CO)NC(=O)[C@H](CCC(=O)O)NC(=O)[C@H](CCC(N)=O)NC(=O)[C@H](Cc1c[nH]cn1)NC(=O)[C@@H](N)CO)C(=O)N[C@@H](CCCNC(N)=O)C(=O)NCC(=O)N[C@@H](CCCNC(N)=O)C(=O)N[C@@H](CO)C(=O)N[C@@H](CCCNC(=N)N)C(=O)NCC(=O)N[C@@H](CCCNC(=N)N)C(=O)N[C@@H](CO)C(=O)NCC(=O)N[C@@H](CCCNC(=N)N)C(=O)N[C@@H](CO)C(=O)NCC(=O)N[C@@H](CO)C(N)=O) [cfc6] |  | 0.6% | 1 |  | 0 | 2% | 1 | 4% | 2 | 0 | 48% | 65 |
| TGPSTRGRQGSXHE (TGPSTRGRQGS[Cit]HE-NH2; N-terminus assumed; SMILES C[C@@H](O)[C@H](N)C(=O)NCC(=O)N1CCC[C@H]1C(=O)N[C@@H](CO)C(=O)N[C@H](C(=O)N[C@@H](CCCNC(=N)N)C(=O)NCC(=O)N[C@@H](CCCNC(=N)N)C(=O)N[C@@H](CCC(N)=O)C(=O)NCC(=O)N[C@@H](CO)C(=O)N[C@@H](CCCNC(N)=O)C(=O)N[C@@H](Cc1c[nH]cn1)C(=O)N[C@@H](CCC(=O)O)C(N)=O)[C@@H](C)O) [nfc1] |  |  |  |  |  |  |  |  |  |  | 10% |  |
| SHQESTAGRSRGRSGRSGS [cfA, reference compound] | did not seem to be immunologically reactive |  |  |  |  |  |  |  |  |  |  |  |
